Counter-ions that a name gives are not always drawn.
Experiments:
[1] = target: T1, Human immunodeficiency virus type 1 reverse transcriptase (Human immunodeficiency virus 1, UniProt Q72547); details: read-out: IC50 (converted)
[2] = target: Human immunodeficiency virus type 1 reverse transcriptase (Human immunodeficiency virus 1) (UniProt Q72547); assay: Inhibition of HIV1 RT at 200 ug/ml
[3] = target: T1, Human immunodeficiency virus type 1 reverse transcriptase; assay: Inhibition of HIV1 RT using poly A oligo(dT) template primer

Row | Compound | IC50 [1] [µM] | inhibition [2] [%] | IC50 [3] [µM]
1 | COc1cc2c(cc1OC)[C@@H]1Cc3ccc(OC)c(O)c3CN1CC2 [TETRAHYDROPALMATRUBINE] | > 586 | 25 | –
2 | COc1cc2c[n+](C)c3c4cc5c(cc4ccc3c2cc1OC)OCO5 [NITIDINE CHLORIDE] | < 130 | – | 128
3 | CC[C@H]1CN2CCc3cc(OC)c(OC)cc3[C@@H]2C[C@@H]1C[C@H]1NCCc2cc(O)c(OC)cc21 [CEPHAELINE DIHYDROCHLORIDE] | > 371 | 20 | –
4 | COc1cc2c(ccc3c4cc(OC)c(OC)cc4c[n+](C)c23)cc1O [FAGARONINE] | 46.7 | – | 25.9
5 | COc1cc2c(ccc3c4cc(OC)c(OC)cc4cnc23)cc1O | > 596 | < 10 | –
6 | COc1ccc2c(c1O)-c1c(O)c(OC)cc3c1[C@H](C2)[N+](C)(C)CC3 [MAGNOFLORINE CHLORIDE] | > 529 | < 10 | –
7 | C/C=C1/C[C@@H](C)[C@@](C)(O)C(=O)OCC2=CCN3CC[C@@H](OC1=O)[C@@H]23 [SENECIONINE] | > 596 | – | –
8 | COc1cc2c(cc1O)-c1cc3ccc(OC)c(OC)c3c[n+]1CC2 [COLUMBAMINE IODIDE] | 125 | – | –
9 | C/C=C1/C[C@@H](C)[C@](O)(CO)C(=O)OCC2=CCN3CC[C@@H](OC1=O)[C@@H]23 [RETRORSINE] | > 569 | – | –
10 | O=c1ccc2cc(O[C@@H]3O[C@H](CO)[C@@H](O)[C@H](O)[C@H]3O)c(O)cc2o1 [ESCULIN] | > 588 | – | –
11 | C=C[C@H]1C[N@@]2CC[C@H]1C[C@@H]2[C@@H](O)c1ccnc2ccccc12 [CINCHONINE] | > 679 | – | –
12 | COc1ccc2c(c1OC)CN1CCc3cc4c(cc3C1C2)OCO4 (stereo not given) [TETRAHYDROBERBERINE] | > 589 | 25 | –
13 | COC(=O)[C@H]1[C@H]2C[C@@H]3c4[nH]c5ccccc5c4CCN3C[C@H]2C[C@@H](OC(=O)c2cc(OC)c(OC)c(OC)c2)[C@@H]1OC [DESERPIDINE] | > 346 | – | –
14 | C/C=C1/C[N+]2(C)CC[C@@]34c5ccccc5N[C@]32CCC1C4(CO)C(=O)OC (stereo not given in full) [ECHITAMINE CHLORIDE] | > 494 | < 10 | –
15 | CC[C@H]1CN2CCc3cc(OC)c(OC)cc3[C@@H]2C[C@@H]1C[C@H]1NCCc2cc(OC)c(OC)cc21 | > 387 | – | –
16 | CC[C@]1(O)C[C@@H]2CN(CCc3c([nH]c4ccccc34)[C@@](C(=O)OC)(c3cc4c(cc3OC)N(C)[C@H]3[C@@](O)(C(=O)OC)[C@H](OC(C)=O)[C@]5(CC)C=CCN6CC[C@]43[C@@H]65)C2)C1 [VINBLASTINE] | > 247 | – | –
17 | C/C=C1\CN2[C@H]3C[C@@]45c6ccccc6N(C)[C@@H]4[C@@H]2C[C@@H]1[C@@]3(C(=O)OC)C5O (stereo not given in full) [VINCAMAJINE] | > 546 | – | –
18 | COC(=O)[C@H]1[C@H]2C[C@@H]3c4[nH]c5ccccc5c4CCN3C[C@H]2C[C@@H](O)[C@@H]1OC(=O)c1cc(OC)c(OC)c(OC)c1 [ISORAUNESCINE] | > 354 | – | –
19 | COC(=O)C1=CO[C@H](C)[C@@H]2CN3CCc4c([nH]c5ccccc45)[C@@H]3C[C@H]12 [RAUNITICINE] | > 567 | – | –
20 | CC[C@H]1CN2CCc3cc(OC)c(OC)cc3[C@@H]2C[C@@H]1CC1=NCCc2cc(O)c(OC)cc21 [PSYCHOTRINE] | > 430 | 20 | –
21 | C/C=C1/C(=O)O[C@]23C=C[C@@H]4C(C(=O)OC)=CO[C@H](O[C@@H]12)[C@@H]43 [PLUMERICIN] | > 689 | – | –

— ChEMBL document CHEMBL1137798, “Evaluation of natural products as inhibitors of human immunodeficiency virus type 1 (HIV-1) reverse transcriptase” (J Nat Prod, 1991)
